# Literature values in US20200016150A1, “TREATMENT OF THE PRURITIC SYMPTOMS OF LIVER DISEASE” (TREVI THERAPEUTICS, INC., priority 2018, published 2020).
# Conditions: injectable formulations (i.e., IV or IM or SC)
structure (smiles),measurement,value
"Cl.Oc1ccc2c3c1OC1[C@@H](O)CC[C@@]4(O)[C@@H](C2)N(CC2CCC2)CC[C@]314 (stereo partly drawn) [nalbuphine, 17-(cyclobutylmethyl)-4,5α-epoxymorphinan-3, 6α, 14-triol, hydrochloride]",half-life,2 to 3 h
